Calls of active or inactive are those of the source. The rule behind the calls is not given here.
Tests used:
[1] = biological target: T1, Protein cereblon/Estrogen receptor (Homo sapiens, UniProt P03372+Q96SW2); assay: PROTAC activity at CRBN/ERalpha in human MCF7 cells assessed as reduction in ERalpha protein level measured after 12 hrs by Western blot analysis; assay type: cell-based
Target sequence in this assay (P03372 whole entry): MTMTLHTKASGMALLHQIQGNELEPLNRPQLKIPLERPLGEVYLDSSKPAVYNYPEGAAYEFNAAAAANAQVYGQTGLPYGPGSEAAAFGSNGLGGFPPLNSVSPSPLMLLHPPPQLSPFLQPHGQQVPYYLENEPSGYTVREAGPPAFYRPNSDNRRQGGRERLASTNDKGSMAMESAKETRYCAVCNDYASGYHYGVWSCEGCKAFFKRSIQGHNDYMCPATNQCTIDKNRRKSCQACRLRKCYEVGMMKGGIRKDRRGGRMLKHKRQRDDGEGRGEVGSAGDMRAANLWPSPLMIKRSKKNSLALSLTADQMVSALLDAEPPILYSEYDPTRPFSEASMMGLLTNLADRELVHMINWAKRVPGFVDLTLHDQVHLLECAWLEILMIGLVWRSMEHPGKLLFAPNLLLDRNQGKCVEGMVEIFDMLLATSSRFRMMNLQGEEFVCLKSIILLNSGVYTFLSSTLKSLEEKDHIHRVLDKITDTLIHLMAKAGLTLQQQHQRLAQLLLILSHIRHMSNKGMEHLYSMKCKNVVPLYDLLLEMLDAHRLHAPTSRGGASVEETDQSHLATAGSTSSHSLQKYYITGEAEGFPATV
Target sequence in this assay (Q96SW2 whole entry): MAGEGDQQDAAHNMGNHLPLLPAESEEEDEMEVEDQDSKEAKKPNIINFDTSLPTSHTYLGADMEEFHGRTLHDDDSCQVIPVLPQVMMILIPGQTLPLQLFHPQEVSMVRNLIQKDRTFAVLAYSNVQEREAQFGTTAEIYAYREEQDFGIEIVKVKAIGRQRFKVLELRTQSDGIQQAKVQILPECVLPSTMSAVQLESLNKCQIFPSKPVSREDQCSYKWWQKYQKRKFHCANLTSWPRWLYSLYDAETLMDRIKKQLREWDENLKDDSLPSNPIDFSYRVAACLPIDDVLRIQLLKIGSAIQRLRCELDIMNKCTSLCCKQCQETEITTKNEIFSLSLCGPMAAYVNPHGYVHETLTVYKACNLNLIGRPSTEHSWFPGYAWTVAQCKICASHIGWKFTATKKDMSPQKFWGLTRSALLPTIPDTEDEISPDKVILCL

[2] = biological target: T1, Protein cereblon/Estrogen receptor; assay: PROTAC activity at CRBN/ERalpha in human MCF7 cells assessed as reduction in ERalpha protein level measured after 12 hrs by Western blot analysis relative to control; assay type: cell-based
Target sequence in this assay (P03372 whole entry, looked up): as the sequence (P03372 whole entry) above
Target sequence in this assay (Q96SW2 whole entry, looked up): as the sequence (Q96SW2 whole entry) above

T47D [3] = assay: PROTAC activity at CRBN/ ERalpha Y537S mutant in human T47D cells assessed as reduction in ERalpha protein level at 10 to 100 nM measured at 7 hrs by Western blot analysis; assay type: cell-based; parameters: scale not given: the % may be the effect or the level left; details: dose 10-100 nM
T47D [4] = assay: PROTAC activity at CRBN/ ERalpha D538G mutant in human T47D cells assessed as reduction in ERalpha protein level at 10 to 100 nM measured at 7 hrs by Western blot analysis; assay type: cell-based; parameters: scale not given: the % may be the effect or the level left; details: dose 10-100 nM
[5] = Drug concentration in female Sprague-Dawley rat plasma at 3 mg/kg, po measured at 1 hr by LC-MS analysis; assay type: ADME, organism-based
[6] = Drug concentration in female Sprague-Dawley rat plasma at 3 mg/kg, po measured at 3 hrs by LC-MS analysis; assay type: ADME, organism-based
[7] = Drug concentration in female Sprague-Dawley rat plasma at 3 mg/kg, po measured at 6 hrs by LC-MS analysis; assay type: ADME, organism-based
[8] = Drug concentration in female Sprague-Dawley rat plasma at 3 mg/kg, po measured at 24 hrs by LC-MS analysis; assay type: ADME, organism-based
[9] = biological target: T1, Protein cereblon/Estrogen receptor; assay: PROTAC activity at CRBN/wild type ERalpha in human T47D cells assessed as reduction in ERalpha protein level at 10 to 100 nM measured at 7 hrs by Western blot analysis; assay type: cell-based; details: dose 10-100 nM
Target sequence in this assay (P03372 whole entry, looked up): as the sequence (P03372 whole entry) above
Target sequence in this assay (Q96SW2 whole entry, looked up): as the sequence (Q96SW2 whole entry) above

MCF7 = assay: Antiproliferative activity against human MCF7 cells assessed as cell growth inhibition incubated for 4 days by crystal violet staining based assay; assay type: functional; details: time 4.0 day

SMILES | DC50 [1] [nM] | Emax [2] [%] | also measured
O=C1CC[C@H](N2Cc3c(ccc4c3OCC43CCN(CC4CC5(C4)CN(c4ccc([C@@H]6c7ccc(O)cc7CC[C@@H]6c6ccccc6)cc4)C5)CC3)C2=O)C(=O)N1 | 0.156 | 81 | –
O=C1CC[C@H](N2Cc3c(ccc4c3OCC43CCN(C(=O)CCC4CCN(c5ccc([C@@H]6c7ccc(O)cc7CC[C@@H]6c6ccccc6)cc5)CC4)CC3)C2=O)C(=O)N1 | 0.116 | 89 | –
O=C1CC[C@H](N2Cc3c(ccc4c3OCC43CCN(CCCCCC4CCN(c5ccc([C@@H]6c7ccc(O)cc7CC[C@@H]6c6ccccc6)cc5)CC4)CC3)C2=O)C(=O)N1 | 0.42 | 105 | –
O=C1CC[C@H](N2Cc3c(ccc4c3OCC43CCN(CC(=O)N4CCCC5(CCN(c6ccc([C@@H]7c8ccc(O)cc8CC[C@@H]7c7ccccc7)cc6)CC5)C4)CC3)C2=O)C(=O)N1 | 0.0288 | 99 | –
O=C1CC[C@H](N2Cc3c(ccc4c3OCC43CCN(CCC4CCN(c5ccc([C@@H]6c7ccc(O)cc7CC[C@@H]6c6ccccc6)cc5)CC4)CC3)C2=O)C(=O)N1 | 0.0043 | 80 | –
O=C1CC[C@H](N2Cc3c(ccc4c3OCC43CCN(CC4COC5(CCN(c6ccc([C@@H]7c8ccc(O)cc8CC[C@@H]7c7ccccc7)cc6)CC5)OC4)CC3)C2=O)C(=O)N1 | 0.167 | 100 | –
O=C1CC[C@H](N2Cc3c(ccc4c3OCC43CCN(C(=O)CN4CC5(CCN(c6ccc([C@@H]7c8ccc(O)cc8CC[C@@H]7c7ccccc7)cc6)CC5)C4)CC3)C2=O)C(=O)N1 | 0.018 | 106 | –
C[C@]12CC[C@@H]3c4ccc(O)cc4C[C@@H](CCCCCCCCC[S+]([O-])CCCC(F)(F)C(F)(F)F)[C@H]3[C@@H]1CC[C@@H]2O (some centres not stated) | – | 100 | –
O=C1CC[C@H](N2Cc3cc(N4CCN(CC5CCN(c6ccc([C@@H]7c8ccc(O)cc8CC[C@@H]7c7ccccc7)cc6)CC5)CC4)ccc3C2=O)C(=O)N1 [VEPDEGESTRANT] | – | – | Activity (T47D [3]): > 80%; Activity (T47D [4]): > 80%
O=C1CC[C@H](N2Cc3c(ccc4c3OCC43CCN(CCCCC4CCN(c5ccc([C@@H]6c7ccc(O)cc7CC[C@@H]6c6ccccc6)cc5)CC4)CC3)C2=O)C(=O)N1 | 0.031 | 105 | –
O=C1CC[C@H](N2Cc3c(ccc4c3OCC43CCN(CC4CCC5(CC4)CCN(c4ccc([C@@H]6c7ccc(O)cc7CC[C@@H]6c6ccccc6)cc4)CC5)CC3)C2=O)C(=O)N1 | 0.337 | 99 | –
O=C1CC[C@H](N2Cc3c(ccc4c3OCC43CCN(C(=O)CN4CCC5(CC4)CN(c4ccc([C@@H]6c7ccc(O)cc7CC[C@@H]6c6ccccc6)cc4)C5)CC3)C2=O)C(=O)N1 | 0.034 | 96 | concentration at 1 h [5]: 16 ng/mL; concentration at 3 h [6]: 13 ng/mL; concentration at 6 h [7]: 9 ng/mL; concentration at 24 h [8]: < 5 ng/mL
O=C1CC[C@H](N2Cc3c(ccc4c3OCC43CCN(C(=O)CN4CCC5(CCN(c6ccc([C@@H]7c8ccc(O)cc8CC[C@@H]7c7ccccc7)cc6)CC5)C4)CC3)C2=O)C(=O)N1 | 0.029 | 107 | –
O=C1CC[C@H](N2Cc3c(ccc4c3OCC43CCN(CC4CC5(CCN(c6ccc([C@@H]7c8ccc(O)cc8CC[C@@H]7c7ccccc7)cc6)CC5)C4)CC3)C2=O)C(=O)N1 | 0.147 | 87 | –
O=C1CC[C@H](N2Cc3c(ccc4c3OCC43CCN(C(=O)CN4CC5(C4)CN(c4ccc([C@@H]6c7ccc(O)cc7CC[C@@H]6c6ccccc6)cc4)C5)CC3)C2=O)C(=O)N1 | 0.011 | 99 | –
O=C1CC[C@H](N2Cc3c(ccc4c3OCC43CCN(CC(=O)N4CCC5(CC4)CCN(c4ccc([C@@H]6c7ccc(O)cc7CC[C@@H]6c6ccccc6)cc4)CC5)CC3)C2=O)C(=O)N1 | 0.0363 | 105 | –
O=C1CC[C@H](N2Cc3c(ccc4c3OCC43CCN(C(=O)CN4CCC5(CC4)CCN(c4ccc([C@@H]6c7ccc(O)cc7CC[C@@H]6c6ccccc6)cc4)CC5)CC3)C2=O)C(=O)N1 | 0.035 | 103 | –
O=C1CC[C@H](N2Cc3c(ccc4c3OCC43CCN(C(=O)CN4CCCC5(CCN(c6ccc([C@@H]7c8ccc(O)cc8CC[C@@H]7c7ccccc7)cc6)CC5)C4)CC3)C2=O)C(=O)N1 | 0.202 | 95 | –

SMILES | DC50 [1] [nM] | Emax [2] [%] | also measured
O=C1CCC(N2Cc3c(ccc4c3OCC43CCN(CC4COC5(CCN(c6ccc([C@@H]7c8ccc(O)cc8CC[C@@H]7c7ccccc7)cc6)CC5)C4)CC3)C2=O)C(=O)N1 (some centres not stated) | 0.041 | 79 | –
O=C1CC[C@H](N2Cc3c(ccc4c3OCC43CCN(CC4CCC5(CC4)CN(c4ccc([C@@H]6c7ccc(O)cc7CC[C@@H]6c6ccccc6)cc4)C5)CC3)C2=O)C(=O)N1 | 0.11 | 95 | –
O=C1CC[C@H](N2Cc3c(ccc4c3OCC43CCN(CC4CC5(CCN(c6ccc([C@@H]7c8ccc(O)cc8CC[C@@H]7c7ccccc7)cc6)CC5)CO4)CC3)C2=O)C(=O)N1 (some centres not stated) | 0.303 | 94 | –
O=C1CC[C@H](N2Cc3c(ccc4c3OCC43CCN(CC4CCC5(CCN(c6ccc([C@@H]7c8ccc(O)cc8CC[C@@H]7c7ccccc7)cc6)CC5)C4)CC3)C2=O)C(=O)N1 (some centres not stated) | 0.126 | 92 | –
O=C1CC[C@H](N2Cc3c(ccc4c3OCC43CCN(CC4CCC5(CCN(c6ccc([C@@H]7c8ccc(O)cc8CC[C@@H]7c7ccccc7)cc6)CC5)OC4)CC3)C2=O)C(=O)N1 (some centres not stated) | 0.139 | 99 | –
O=C1CC[C@H](N2Cc3c(ccc4c3OCC43CCN(C(=O)C4CCN(c5ccc([C@@H]6c7ccc(O)cc7CC[C@@H]6c6ccccc6)cc5)CC4)CC3)C2=O)C(=O)N1 | 0.028 | 82 | –
Oc1ccc2c(c1)CC[C@H](c1ccccc1)[C@@H]2c1ccc(OCCN2CCCC2)cc1 | – | – | Activity [9]: inactive; Activity (T47D [3]): inactive; Activity (T47D [4]): inactive
O=C1CC[C@H](N2Cc3c(ccc4c3OCC43CCN(CC4CCN(c5ccc([C@@H]6c7ccc(O)cc7CC[C@@H]6c6ccccc6)cc5)CC4)CC3)C2=O)C(=O)N1 | – | 37 | –
O=C1CC[C@H](N2Cc3c(ccc4c3OCC43CCN(C(=O)CCCC4CCN(c5ccc([C@@H]6c7ccc(O)cc7CC[C@@H]6c6ccccc6)cc5)CC4)CC3)C2=O)C(=O)N1 | 0.079 | 95 | –
O=C1CC[C@H](N2Cc3c(ccc4c3OCC43CCN(CC4CCC5(CCN(c6ccc([C@@H]7c8ccc(O)cc8CC[C@@H]7c7ccccc7)cc6)CC5)O4)CC3)C2=O)C(=O)N1 (some centres not stated) | 0.604 | 86 | –
O=C1CC[C@H](N2Cc3c(ccc4c3OCC43CCN(C(=O)CC4CCN(c5ccc([C@@H]6c7ccc(O)cc7CC[C@@H]6c6ccccc6)cc5)CC4)CC3)C2=O)C(=O)N1 | 0.025 | 86 | –
O=C1CC[C@H](N2Cc3c(ccc4c3OCC43CCN(CC(=O)N4CCC5(CCN(c6ccc([C@@H]7c8ccc(O)cc8CC[C@@H]7c7ccccc7)cc6)CC5)C4)CC3)C2=O)C(=O)N1 | 0.0419 | 100 | –
O=C1CC[C@H](N2Cc3c(ccc4c3OCC43CCN(C[C@H]4CCC5(CCN(c6ccc([C@@H]7c8ccc(O)cc8CC[C@@H]7c7ccccc7)cc6)CC5)OC4)CC3)C2=O)C(=O)N1 | 0.142 | 100 | –
CCNCCc1ccc(CN(CC)c2cc(OC)ccc2[C@@H]2CCc3cc(O)ccc3C2)cc1 | – | – | Activity [9]: Active; Activity (T47D [3]): Active; Activity (T47D [4]): Active
O=C1CC[C@H](N2Cc3c(ccc4c3OCC43CCN(CC(=O)N4CC5(C4)CN(c4ccc([C@@H]6c7ccc(O)cc7CC[C@@H]6c6ccccc6)cc4)C5)CC3)C2=O)C(=O)N1 | 0.0142 | 99 | –
CN(C)C[C@@H]1CCC2(CCN(c3ccc([C@@H]4c5ccc(O)cc5CC[C@@H]4c4ccccc4)cc3)CC2)OC1 | – | – | Activity [9]: inactive; Activity (T47D [3]): inactive; Activity (T47D [4]): inactive; Activity (MCF7): Active
O=C1CC[C@H](N2Cc3c(ccc4c3OCC43CCN(CC(=O)N4CCC5(CC4)CN(c4ccc([C@@H]6c7ccc(O)cc7CC[C@@H]6c6ccccc6)cc4)C5)CC3)C2=O)C(=O)N1 | 0.253 | 102 | concentration at 1 h [5]: 32 ng/mL; concentration at 3 h [6]: 26 ng/mL; concentration at 6 h [7]: 17 ng/mL; concentration at 24 h [8]: < 5 ng/mL
O=C1CC[C@H](N2Cc3c(ccc4c3OCC43CCN(CCCC4CCN(c5ccc([C@@H]6c7ccc(O)cc7CC[C@@H]6c6ccccc6)cc5)CC4)CC3)C2=O)C(=O)N1 | 0.038 | 98 | –

— ChEMBL document CHEMBL6083286, “Discovery of ERD-12310A as an Exceptionally Potent and Orally Efficacious PROTAC Degrader of Estrogen Receptor α (ERα)” (J Med Chem, 2024)
